Columns and labels:
[1] = administered orally; cited from earlier work
[2] = system: individuals receiving lithium treatment (bipolar symptoms); conditions: cited from earlier work
[3] = system: patients with major depressive disorder; assay: Same trial, subset of patients with major depressive disorder (unipolar depression); format: in vivo, human; conditions: subset with major depressive disorder (n=10)
Protocol: (§1) The above pharmaceutical compound comprising minocycline and acetylsalicylic acid was tested using a double-blind, placebo-controlled trial with a 2×2design. The study examined subjects with bipolar disorder during a current major depressive episode (“bipolar depression”). Most subjects were either partial responders to existing antidepressant and/or mood stabilizing treatments or were treatment resistant. The subjects were randomized to receive either (1) placebo-minocycline plus placebo-acetylsalicylic acid, or (2) active-minocycline (100 mg b.i.d.) plus placebo-acetylsalicylic acid, or (3) placebo-minocycline plus active-acetylsalicylic acid (81 mg b.i.d.), or (4) active-minocycline (100 mg b.i.d.) plus active-acetylsalicylic acid (81 mg b.i.d.) (FIG. 1). Clinical symptoms of depression and mania were measured using the Montgomery-Asberg Depression Rating Scale (MADRS) and the Young Mania Rating Scale (YMRS), respectively.
In the subset of patients with major depressive disorder (n=10), 75% responded to the combination of minocycline+ASA (3/4) compared to 50% response in the minocycline+placebo group (1/2), and 0% in the ASA+placebo group (0/3). The data document that the combination of minocycline and ASA has effectiveness for the treatment of additional forms of non-bipolar depression such as major depressive disorder and dysthymia. […]

[4] = system: subjects with bipolar disorder during a current major depressive episode (bipolar depression); assay: Double-blind, placebo-controlled 2×2 trial in bipolar depression (MADRS, YMRS); format: in vivo, human; conditions: LOCF; for Percentage of female responders: female patients; for Percentage of female responders / Percentage of responders (BMI >30): >50% reduction in MADRS; for Percentage of responders (BMI >30): subset BMI >30; for Percentage of responders: total sample, response = greater than 50% reduction in MADRS baseline to final, 6 weeks, ASA 81 mg b.i.d., minocycline 100 mg b.i.d. p.o.
Protocol: as §1
For the data produced below, the treatment method for administering the combination of each composition, including the active-minocycline and active-acetylsalicylic acid, entailed the following steps: administer ASA 81 mg p.o b.i.d and minocycline 100 mg p.o b.i.d. As depicted in FIG. 1, each session number (total of 7) is encircled, with the timing between sessions indicated in weeks with a 2business day window on either side of visit target date to complete the visit. Session 1(far left) is the baseline and session 7(far right) is the study end. The study duration is 6weeks.
Of the 99patients who were randomized, 87started treatment and completed a sufficient number of sessions (at least 3weeks of treatment) to be included in the last-observation carried forward analysis (LOCF) shown below. For these 87subjects, 79completed the entire study. Eight subjects dropped-out early, all from the active treatment groups—4from minocycline+ASA, 3from ASA+placebo, and one from minocycline+placebo. Since existing anti-depressant medications generally begin to exert antidepressant effects within 3weeks, in this trial, data from patients with at least 3weeks of treatment were including in the LOCF analysis.
Response to medication/placebo was defined as a greater than 50% reduction in MADRS scores between the baseline and final assessment. Table 2provides results reflecting percentage of treatment responders by group, and relative risk reduction (RRR), absolute risk reduction (ARR) and, number needed to treat (NNT) for the combination ASA/minocycline treatment.

[5] = administered orally; cited from earlier work; remark: listed apart in the source

Row | SMILES | brain to blood ratio [1] | level within brain as percent of level within blood plasma [1] [%] | effect on medication events ([2]; high-dose aspirin or other anti-inflammatory classes added to lithium treatment) | less likely to have a medication event ([2]; low-dose (≤81 to 162 mg/day) aspirin added to lithium treatment) [%] | percent responded (MADRS response) [3] [%] | Percentage of female responders [4] [%] | Percentage of responders (BMI >30) [4] [%] | Percentage of responders [4] [%] | level within cerebrospinal fluid as percent of plasma concentrations [5]
1 | CC(=O)Oc1ccccc1C(=O)O [ASA, acetylsalicylic acid] | 0.32 | 32 | increase in medication events | 17 | 0 | 50 | 44 | 56 | –
2 | CN(C)c1ccc(O)c2c1C[C@H]1C[C@H]3[C@H](N(C)C)C(O)=C(C(N)=O)C(=O)[C@@]3(O)C(O)=C1C2=O [minocycline] | – | – | – | – | 50 | 55 | 38 | 38 | 11-56%
